Results from PMC6071143, “(−)-Homosalinosporamide A and Its Mode of Proteasome Inhibition: An X-ray Crystallographic Study” (Marine Drugs, 2018).
Like-named read-outs stand apart in the source and are kept apart here.

How the values were obtained:
[1] = biological target: T1, yeast 20S proteasome (Saccharomyces cerevisiae, UniProt P25043+P30656+P38624); settings: cited from earlier work
T1 construct: Crystals of the 20S proteasome from S. cerevisiae were grown in hanging drops; endogenous in cells; host or cells: S. cerevisiae (complex purified from yeast by a cited earlier protocol)

[2] = test system: yeast 20S proteasome, trypsin-like (T-L) activity; settings: luminogenic enzyme assay; cited from earlier work
[3] = biological target: yeast 20S proteasome, caspase-like (C-L) activity; settings: luminogenic enzyme assay; cited from earlier work
[4] = test system: human proteasome; design: method as in PMID 16286248; settings: cited from earlier work
[5] = test system: yeast 20S proteasome, chymotrypsin-like (ChT-L) activity; settings: luminogenic enzyme assay; cited from earlier work
[6] = biological target: T1, yeast 20S proteasome; assay: X-ray crystallography of yeast 20S proteasome:ligand complex, mode of action; type: binding; settings: yCP:homoSalA crystal structure, crystals soaked at 5 mM; no tetrahydropyran ring formation
Protocol: Therefore, we elucidated the yCP:homoSalA complex at molecular resolution to investigate its mode of action. Active yCP crystals were soaked with final compound concentrations of 5 mM for 24 h. Subsequently, diffraction data were recorded to 2.9 Å resolution (Table 2) and data processing, as well as structural refinement, were performed according to previous protocols. The crystallographic data were refined to a final Rfree value of 23.3% with root mean square deviation bond and angle values less than 0.007 Å and 1.1°, respectively (PDB ID 6GOP, Table 2). […] While the active site nucleophile Thr1O^γ opens the β-lactone ring, the positively charged Thr1NH3^+-terminus acts as a Brønsted acid generating a C4-hydroxyl group from the hydrolyzed β-lactone. […]
While the electron density map offered no evidence for fluoride elimination, the complex structure determined after 24 h crystal soaking time depicts complete displacement of the leaving group. […]
Crystals of the 20S proteasome from S. cerevisiae were grown in hanging drops at 20 °C as previously described and incubated for […] with homoSalA at 5 mM. […] Crystals were soaked in a cryoprotecting buffer (30% MPD, 20 mM of magnesium acetate, 100 mM MES (pH 6.9)) and frozen in a stream of liquid nitrogen gas at 100 K. X-ray intensities were evaluated using the XDS program package. […]

[7] = test system: yeast 20S proteasome, chymotrypsin-like (ChT-L) activity; assay: luminogenic enzyme assay, chymotrypsin-like activity; type: biochemical
Protocol: The proteasome inhibitory activity of the unnatural analog, homoSalA, was measured in a luminogenic enzyme assay in comparison to SalA enabling assessment of all three active sites of yCP.

[8] = test system: chymotrypsin-like activity of the proteasome; design: method as in PMID 7732382; settings: cited from earlier work

**Q.** What does the source list for `C[C@@]12OC(=O)[C@]1([C@@H](O)[C@@H]1C=CCCC1)NC(=O)[C@@H]2CCCl` [(–)-SalA (1), salinosporamide A]?
**A.** mode of action (reversibility of proteasome inhibition) ([1]; chloro-ethyl moiety forms a tetrahydrofuran ring): irreversibly blocks the CP; IC50 [2]: 39 ± 7 nM; IC50 [3]: 111 ± 22 nM; IC50 [4]: 1.3 nM; ChT-L Activity 20S Proteasome (IC50, nM) [5]: sub-nanomolar range; IC50 [5]: 0.8 ± 0.08 nM

**Q.** Which IC50 [2] does the source give for `C[C@@]12OC(=O)[C@]1([C@@H](O)[C@@H]1C=CCCC1)NC(=O)[C@@H]2CCCCl` [(–)-homoSalA (3), (–)-homosalinosporamide A] here?
**A.** 118 ± 28 nM

**Q.** What about the “mode of action (reversibility of proteasome inhibition)” value [6] of the same compound?
**A.** reversible binder

**Q.** And the IC50 [3]?
**A.** 144 ± 12 nM

**Q.** And the “potency towards caspase- and trypsin-like activities relative to chymotrypsin-like activity” value [7]?
**A.** two orders of magnitude less potent

**Q.** What about the “ChT-L Activity 20S Proteasome (IC50, nM)” value [5] of the same compound?
**A.** sub-nanomolar range

**Q.** And the IC50 [5]?
**A.** 0.7 ± 0.04 nM

**Q.** With `CC[C@H]1C(=O)N[C@@]2([C@@H](O)[C@@H]3C=CCCC3)C(=O)O[C@@]12C` [SalB, salinosporamide B] as the compound, how does the “mode of action (reversibility of proteasome inhibition)” value [1] read?
**A.** slow reversible CP inhibitor

**Q.** With `CC(C)[C@H](O)[C@@]12NC(=O)[C@H](C)[C@@H]1OC2=O` [omuralide (5), omuralide] as the compound, how does the IC50 [8] read?
**A.** 49 nM
